tested on: TEAD responsive promoter element (8XGTIIC-Luciferase; YAP1-TEAD and TAZ-TEAD activity); assay: TEAD-Luciferase reporter assay; type: cell-based; details: Homo sapiens; luciferase activity in tumor cell lines with stable integration of the 8XGTIIC-Luciferase construct; 10 doses between 1 and 10000 nM, 48 hrs
Excerpt: TEAD-Luciferase Reporter Assay
Luciferase-based gene reporter assays were used, employing the TEAD responsive promoter element that are stably integrated to different human tumor cell lines in order to monitor YAP1-TEAD and TAZ-TEAD activity and to study YAP1/TAZ-TEAD activity modulation by small molecule compounds. Luciferase-based gene reporter assays employing the GAPDH promoter element and stably integrated to different human tumor cell lines are used as counter screen control cell lines.
Tumor cell lines with stable integration of the 8XGTIIC-Luciferase construct (Dupont et al., Nature 2011) or the GAPDH-Luciferase control plasmid, are seeded in culture medium in 96-well plates at a density of 8000 cells/well. Following an overnight incubation in a 37° C., 5% CO2 growth chamber, cells are treated with compounds described above at 10 doses ranging between 1 and 10000 nM for 48 hrs. After compound incubation, cells are lysed with Bright-Glo Luciferase Assay System (Promega E2620) and luciferase activity is measured using a luminescent plate reader.
The inhibitory activity of the compounds with respect to luciferase activity is given by the concentration which inhibits 50% of activity of non-treated cells. IC50s are determined with a nonlinear regression model on XLfit software analysis (IDBS, UK).

Structure (SMILES)	IC50
C=CC(=O)Nc1ccc2c(ccn2-c2ccc(C(F)(F)F)cn2)c1 [Example 46, N-(1-(5-(trifluoromethyl)pyridin-2-yl)-1H-indol-5-yl)acrylamide]	> 10000 nM
C=CC(=O)Nc1ccc2c(ccn2-c2cccnc2)c1 [Example 47, N-(1-(pyridin-3-yl)-1H-indol-5-yl)acrylamide]	> 10000 nM
C=CC(=O)Nc1ccc2c(ccn2-c2ccc(F)cc2)c1 [Example 48, N-(1-(4-fluorophenyl)-1H-indol-5-yl)acrylamide]	> 10000 nM
C=CC(=O)Nc1ccc2c(ccn2-c2ccc(F)c(F)c2)c1 [Example 49, N-(1-(3,4-difluorophenyl)-1H-indol-5-yl)acrylamide]	> 10000 nM
C=CC(=O)Nc1ccc2c(ccn2-c2ccc(C#N)cc2)c1 [Example 51, N-(1-(4-cyanophenyl)-1H-indol-5-yl)acrylamide]	313 nM
C=CC(=O)Nc1ccc2c(ccn2Cc2ccc(F)c(F)c2)c1 [Example 53, N-(1-(3,4-difluorobenzyl)-1H-indol-5-yl)acrylamide]	33 nM
C=CC(=O)Nc1ccc2c(ccn2Cc2cccc(C#N)c2)c1 [Example 54, N-(1-(3-cyanobenzyl)-1H-indol-5-yl)acrylamide]	388 nM
C=CC(=O)Nc1ccc2c(ccn2Cc2ccc(C(F)(F)F)o2)c1 [Example 55, N-(1-((5-(trifluoromethyl)furan-2-yl)methyl)-1H-indol-5-yl)acrylamide]	185 nM
C=CC(=O)Nc1ccc2c(ccn2Cc2cccc(S(C)(=O)=O)c2)c1 [Example 59, N-(1-(3-(methylsulfonyl)benzyl)-1H-indol-5-yl)acrylamide]	2870 nM
C=CC(=O)Nc1ccc2c(c1)c(COC)cn2Cc1cccc(C(F)(F)F)c1 [Example 60, N-(3-(methoxymethyl)-1-(3-(trifluoromethyl)benzyl)-1H-indol-5-yl)acrylamide]	88 nM
C=CC(=O)Nc1ccc2c(c1)c(C(=O)OC)cn2Cc1cccc(C(F)(F)F)c1 [Example 61, methyl 5-acrylamido-1-(3-(trifluoromethyl)benzyl)-1H-indole-3-carboxylate]	41 nM
C=CC(=O)Nc1ccc2ccn(-c3cccc(C(F)(F)F)c3)c2c1 [Example 62, N-(1-(3-(trifluoromethyl)phenyl)-1H-indol-6-yl)acrylamide]	64 nM
C=CC(=O)Nc1ccc2c(ccn2-c2ccc(S(F)(F)(F)(F)F)cc2)c1 [Example 63, N-(1-(4-(pentafluoro-λ6-sulfanyl)phenyl)-1H-indol-5-yl)acrylamide]	29 nM
C=CC(=O)Nc1ccc2c(ccn2-c2ccc(C(F)(F)F)cc2C)c1 [Example 65, N-(1-(2-methyl-4-(trifluoromethyl)phenyl)-1H-indol-5-yl)acrylamide]	59 nM
C=CC(=O)Nc1ccc2c(ccn2-c2cncc(F)c2)c1 [Example 67, N-(1-(5-fluoropyridin-3-yl)-1H-indol-5-yl)acrylamide]	8540 nM
C=CC(=O)Nc1ccc2c(c1)c(C)cn2-c1ccc(C(F)(F)F)cc1 [Example 69, N-(3-methyl-1-(4-(trifluoromethyl)phenyl)-1H-indol-5-yl)acrylamide]	9 nM
C=CC(=O)N(C)c1ccc2c(c1)cc(C)n2-c1ccc(C(F)(F)F)cc1 [Example 71, N-methyl-N-[2-methyl-1-[4-(trifluoromethyl)phenyl]indol-5-yl]acrylamide]	24 nM
C=CC(=O)Nc1ccc2c(c1)c(COC)cn2-c1ccc(C(F)(F)F)cc1 [Example 72, N-(3-(methoxymethyl)-1-(4-(trifluoromethyl)phenyl)-1H-indol-5-yl)acrylamide]	15 nM
C=CC(=O)Nc1cc2ccn(-c3ccc(C(F)(F)F)cc3)c2cc1F [Example 73, N-(6-fluoro-1-(4-(trifluoromethyl)phenyl)-1H-indol-5-yl)acrylamide]	244 nM
C=CC(=O)N(C)c1ccc2c(ccn2-c2ccc(C(F)(F)F)cc2)c1 [Example 74, N-methyl-N-(1-(4-(trifluoromethyl)phenyl)-1H-indol-5-yl)acrylamide]	106 nM
C/C=C/C(=O)Nc1ccc2c(ccn2-c2ccc(C(F)(F)F)cc2)c1 [Example 75, (E)-N-(1-(4-(trifluoromethyl)phenyl)-1H-indol-5-yl)but-2-enamide]	458 nM
C=CC(=O)Nc1cc2ccn(Cc3cccc(C(F)(F)F)c3)c2cc1Cl [Example 78, N-(6-chloro-1-(3-(trifluoromethyl)benzyl)-1H-indol-5-yl)acrylamide]	141 nM
C=CC(=O)Nc1cc(Cl)c2c(ccn2Cc2cccc(C(F)(F)F)c2)c1 [Example 79, N-(7-chloro-1-(3-(trifluoromethyl)benzyl)-1H-indol-5-yl)acrylamide]	85 nM
C=CC(=O)Nc1cc2ccn(Cc3cccc(C(F)(F)F)c3)c2cc1F [Example 80, N-(6-fluoro-1-(3-(trifluoromethyl)benzyl)-1H-indol-5-yl)acrylamide]	18 nM
C=CC(=O)Nc1ccc2c(c1)c(CO)cn2-c1ccc(C(F)(F)F)cc1 [Example 82, N-(3-(hydroxymethyl)-1-(4-(trifluoromethyl)phenyl)-1H-indol-5-yl)acrylamide]	158 nM
C=CC(=O)Nc1ccc2c(c1)c(C(N)=O)cn2Cc1cccc(C(F)(F)F)c1 [Example 83, 5-Acrylamido-1-(3-(trifluoromethyl)benzyl)-1H-indole-3-carboxamide]	1790 nM

Further lines, results first:

IC50	Structure (SMILES)
4680 nM	C=CC(=O)Nc1ccc2c(ccn2-c2cccc(S(C)(=O)=O)c2)c1 [Example 50, N-(1-(3-(methylsulfonyl)phenyl)-1H-indol-5-yl)acrylamide]
41 nM	C=CC(=O)Nc1ccc2c(ccn2Cc2cc(F)cc(F)c2)c1 [Example 52, N-(1-(3,5-difluorobenzyl)-1H-indol-5-yl)acrylamide]
≥ 10000 nM	C=CC(=O)Nc1ccc2c(ccn2Cc2cscn2)c1 [Example 56, N-(1-(thiazol-4-ylmethyl)-1H-indol-5-yl)acrylamide]
191 nM	C=CC(=O)Nc1ccc2c(ccn2Cc2csc(C(F)(F)F)n2)c1 [Example 57, N-(1-((2-(trifluoromethyl)thiazol-4-yl)methyl)-1H-indol-5-yl)acrylamide]
2010 nM	C=CC(=O)Nc1cccc2ccn(Cc3cccc(C(F)(F)F)c3)c12 [Example 58, N-(1-(3-(trifluoromethyl)benzyl)-1H-indol-7-yl)acrylamide]
108 nM	C=CC(=O)Nc1ccc2ccn(-c3ccc(C(F)(F)F)cc3)c2c1 [Example 64, N-(1-(4-(trifluoromethyl)phenyl)-1H-indol-6-yl)acrylamide]
1850 nM	C=CC(=O)Nc1ccc2c(ccn2-c2cc(F)cc(F)c2)c1 [Example 66, N-(1-(3,5-difluorophenyl)-1H-indol-5-yl)acrylamide]
1090 nM	C=CC(=O)Nc1ccc2c(ccn2-c2ccnc(C(F)(F)F)c2)c1 [Example 68, N-(1-(2-(trifluoromethyl)pyridin-4-yl)-1H-indol-5-yl)acrylamide]
12 nM	C=CC(=O)Nc1ccc2c(c1)cc(C)n2-c1ccc(C(F)(F)F)cc1 [Example 70, N-(2-methyl-1-(4-(trifluoromethyl)phenyl)-1H-indol-5-yl)acrylamide]
3830 nM	CN(C)C/C=C/C(=O)Nc1ccc2c(ccn2-c2ccc(C(F)(F)F)cc2)c1 [Example 76, (E)-4-(dimethylamino)-N-(1-(4-(trifluoromethyl)phenyl)-1H-indol-5-yl)but-2-enamide]
534 nM	C=CC(=O)Nc1cc2ccn(-c3ccc(C(F)(F)F)cc3)c2cc1Cl [Example 77, N-(6-chloro-1-(4-(trifluoromethyl)phenyl)-1H-indol-5-yl)acrylamide]
68 nM	C=CC(=O)Nc1cc(Cl)c2c(ccn2-c2ccc(C(F)(F)F)cc2)c1 [Example 81, N-(7-chloro-1-(4-(trifluoromethyl)phenyl)-1H-indol-5-yl)acrylamide]
620 nM	C=CC(=O)Nc1ccc2c(c1)c(C(N)=O)cn2-c1ccc(C(F)(F)F)cc1 [Example 84, 5-Acrylamido-1-(4-(trifluoromethyl)phenyl)-1H-indole-3-carboxamide]
